Results: the NIST ThermoML archive (doi:10.1016/j.jct.2006.09.001)
“And” between values parts separate entries of the source, which are not always exact repeats. Identical values can stand only once.

Experiments:
[1] = for Normal melting temperature: DTA
[2] = Molar enthalpy of transition or fusion; details: Crystal; DSC

[CH]1C=CC=C1.[CH]1C=CC=C1.[Fe] [ferrocene]
[1], Crystal, Transpiration method
Details | vapor or sublimation pressure
289.7 K | 0.00041 kPa
299.6 K | 0.00116 kPa
303.5 K | 0.00169 kPa
303.6 K | 0.00172 kPa
307.5 K | 0.00249 kPa
312.5 K | 0.00388 kPa
317.6 K | 0.00605 kPa
322.6 K | 0.00945 kPa
322.7 K | 0.00932 kPa
327.6 K | 0.014 kPa
332.8 K | 0.02131 kPa and 0.02096 kPa
337.9 K | 0.03024 kPa
342.9 K | 0.04379 kPa
348 K | 0.06337 kPa
353.1 K | 0.09205 kPa
358.3 K | 0.1334 kPa
363.4 K | 0.1803 kPa

Details | Normal melting temperature [°C]
[1], Crystal | 174.7

Details | Molar enthalpy of transition or fusion [kcal/mol]
[2] | 4.37

OC[c-]1cccc1.[Fe+2].c1cc[cH-]c1 [(hydroxymethyl)ferrocene]
[1]
Details | vapor or sublimation pressure
313.3 K, Crystal | 0.00011 kPa
316.7 K, Crystal | 0.00015 kPa
320.4 K, Crystal | 0.00025 kPa
323.3 K, Crystal | 0.00036 kPa
327.3 K, Crystal | 0.00056 kPa
330.4 K, Crystal | 0.00079 kPa and 0.00078 kPa
333.7 K, Crystal | 0.00116 kPa
333.8 K, Crystal | 0.00111 kPa
335.9 K, Crystal | 0.0015 kPa
336.2 K, Crystal | 0.00149 kPa
339.8 K, Crystal | 0.00218 kPa
341.1 K, Crystal | 0.00254 kPa
342 K, Crystal | 0.0029 kPa
343.3 K, Crystal | 0.00329 kPa
346 K, Crystal | 0.00416 kPa
347.3 K, Crystal | 0.00468 kPa
347.4 K, Crystal | 0.00492 kPa
353.2 K, Liquid | 0.00788 kPa
355.2 K, Liquid | 0.00938 kPa
357.3 K, Liquid | 0.0104 kPa
358.9 K, Liquid | 0.01181 kPa
359.6 K, Liquid | 0.01286 kPa
361.6 K, Liquid | 0.01452 kPa
363.4 K, Liquid | 0.01668 kPa
364.7 K, Liquid | 0.01879 kPa
366.1 K, Liquid | 0.02236 kPa
366.5 K, Liquid | 0.02159 kPa
368.9 K, Liquid | 0.02708 kPa
369 K, Liquid | 0.02499 kPa
370.5 K, Liquid | 0.02709 kPa
371.8 K, Liquid | 0.03178 kPa
372.5 K, Liquid | 0.03208 kPa
374 K, Liquid | 0.03745 kPa
375.6 K, Liquid | 0.03813 kPa
377 K, Liquid | 0.04507 kPa
379.7 K, Liquid | 0.05509 kPa
383.7 K, Liquid | 0.06949 kPa
385 K, Liquid | 0.07524 kPa
386.8 K, Liquid | 0.08377 kPa
389.6 K, Liquid | 0.09595 kPa
393.7 K, Liquid | 0.1301 kPa

Details | Normal melting temperature [°C]
[1], Crystal | 79.1

Details | Molar enthalpy of transition or fusion [kcal/mol]
[2] | 5.66

[Fe+2].c1cc[cH-]c1.c1ccc(C[c-]2cccc2)cc1 [benzylferrocene]
[1], Crystal
Details | vapor or sublimation pressure [kPa]
311.7 K | 1.2e-05
313 K | 1.3e-05
318 K | 2.7e-05
323.3 K | 5.2e-05
325.1 K | 6.4e-05
325.3 K | 6.5e-05
327.2 K | 8.6e-05
331.3 K | 0.000132
331.9 K | 0.000152
333.3 K | 0.00017
335.9 K | 0.000236
338.4 K | 0.000303
338.9 K | 0.000323
341.3 K | 0.000442

[1], Liquid, Transpiration method
Details | vapor or sublimation pressure [kPa]
350.7 K | 0.00111
352.9 K | 0.00129
356.9 K | 0.00181
361 K | 0.00247
365 K | 0.00332
369 K | 0.0046
373.1 K | 0.00602
377.1 K | 0.0082

Details | Normal melting temperature [°C]
[1], Crystal | 76.1

Details | Molar enthalpy of transition or fusion [kcal/mol]
[2] | 5.66

O=C(c1ccccc1)c1ccc[cH-]1.[Fe+2].c1cc[cH-]c1 [benzoylferrocene]
[1], Transpiration method
Details | vapor or sublimation pressure [kPa]
342.3 K, Crystal | 2.2e-05
347.2 K, Crystal | 3.8e-05
350.2 K, Crystal | 5.3e-05
350.9 K, Crystal | 5.8e-05
353 K, Crystal | 7.5e-05
356 K, Crystal | 9.7e-05
357.8 K, Crystal | 0.000123
360.3 K, Crystal | 0.000164
363 K, Crystal | 0.00021
364 K, Crystal | 0.000246
366.4 K, Crystal | 0.000313
370 K, Crystal | 0.000441
371.7 K, Crystal | 0.000553
373.6 K, Crystal | 0.000674
377.3 K, Crystal | 0.000963
379.3 K, Crystal | 0.001207
384 K, Liquid | 0.00187
386.2 K, Liquid | 0.00223
389.1 K, Liquid | 0.0027
392.4 K, Liquid | 0.00338
396 K, Liquid | 0.00428
397.9 K, Liquid | 0.00488
402 K, Liquid | 0.00618
402.6 K, Liquid | 0.00664
404.8 K, Liquid | 0.00742
408.8 K, Liquid | 0.00977
408.9 K, Liquid | 0.00961
410.6 K, Liquid | 0.01054
413.6 K, Liquid | 0.01254
416.8 K, Liquid | 0.01548
419.7 K, Liquid | 0.01891
423.3 K, Liquid | 0.02256
426.6 K, Liquid | 0.02806
429.6 K, Liquid | 0.03229

Details | Normal melting temperature [°C]
[1], Crystal | 109.5

Details | Molar enthalpy of transition or fusion [kcal/mol]
[2] | 7.15
